One may read the solubility as how much of the substance goes into solution per volume.

Data on 5 compounds can be found in patent US20170224823A1, “PLATINUM-CATALYZED SILICONE DRUG DELIVERY DEVICES AND METHODS OF USE THEREOF” (priority 2014, published 2017).

A short description of data set [1]: In vitro release from addition-cured (Pt) LSR9-9508-30 matrix vaginal rings. The data set is classed as physicochemical. To be noted: for Time after which release ceased / Total release, % of initial drug loading: LSR9-9508-30 matrix rings, 21-day study; for Total release, % of initial drug loading: non-micronized LNG, micronized EE, micronized ET; for Release mechanism: LSR9-9508-30 rings, duration of the 21-day study. The text has this:
(§1) Formulations of dapivirine (DAP or DPV) with a contraceptive hormone were investigated for use with a multipurpose prevention technology (MPT) intravaginal ring system. Dapivirine and non-micronized levonorgestrel (LNG), micronized ethinyl estradiol (EE), or micronized etonogestrel (ET) were studied in condensation cured (Sn) or addition cured (Pt) silicone systems. Matrix-type vaginal rings were manufactured by injection moulding, using either MEDS-6382 (condensation-cured) or LSR9-9508-30 (addition-cured) silicone elastomers. Release of DAP and LNG from the LSR9-9508-30 rings was diffusion-controlled for the duration of the 21-day study. Total DAP release was 41% of the initial loading, while only 29% LNG loading was released. Both drugs would have continued to be released beyond 21 days had the study had continued. However, release of EE and ET ceased after 13 and 8 days respectively, with only 36 and 23% of initial drug loading released.

Data set [2] is described as follows: In vitro release from condensation-cured (Sn) MEDS-6382 matrix vaginal rings. It is filed as physicochemical.
From the text: as §1

Data set [3] is described as follows: In vitro release from platinum-catalyzed silicone matrix rings (200 mg dapivirine, 32 mg levonorgestrel), storage stability study. As to conditions: for Release at week-two time point: rings with micronized levonorgestrel and micronized dapivirine, stored two weeks. The data set is classed as physicochemical. The method, then:
Platinum-catalyzed silicone matrix intravaginal rings comprising 200 mg micronized dapivirine and 32 mg levonorgestrel (both micronized and non-micronized) were utilized in this study. FIGS. 1 and 2 depict the mean and cumulative daily release of dapivirine and levonorgestrel versus time for micronized levonorgestrel and micronized dapivirine on storage stability. […] For the non-micronized levonorgestrel rings, there was less than 100% recovery of the amount of levonorgestrel added in two of the rings tested for content after initial release rate testing. […] All of the levonorgestrel release rate results obtained in this study are likely to have been influenced by this phenomenon.

The nature of data set [4]: Recovery from NuSil DDU-4320 platinum-catalyzed silicone slabs or rings. It is filed as physicochemical. As to conditions: DDU-4320 slab. The method, then: (§2) Methods for assaying the percent of compound having a terminal alkene, alkyne or carbonyl group recoverable from or covalently bound to a platinum-catalyzed silicone intravaginal drug delivery device of the invention are commonly known in the art. For example, silicone intravaginal rings, slabs or IUDs can be added to a glass flask. 5 mL of a 2.5 mg/mL norethindrone solution (NOR; present as an internal standard) in methanol can be added to the flask along with 95 mL of dichlormethane (DCM). The flask can be placed in a rotating orbital incubator set at 37° C. and 60 rpm for 72 hours. A 2 mL aliquot of the cooled extraction mixture can be transferred to a glass centrifuge tube and allowed to evaporate to dryness. The dried samples can be reconstituted in 10 mL of methanol with vortex mixing for 30 seconds and sonication for 40 minutes. A 1:10 dilution of this solution can be prepared using methanol and water such that the final solvent composition is 1:1. This solution and be analyzed by HPLC. Recovery can be expressed as a percentage of predicted compound as compared to the original amount of compound present in the silicone intravaginal ring, slab or IUD. The final data can be corrected based on the recovery of a control solution of known compound concentration that was “extracted” at the same time.
The influence of silicone polymer system cure time, and cure temperature on levonorgestrel was also investigated. With the understanding that the NuSil DDU-4320 could be cured at a lower temperature than NuSil MED-4870, process optimization proceeded with NuSil DDU-4320.
For example, at a cure temperature and time of 100° C. for 7 minutes, approximately 87% of the LNG added was recovered using non-micronized LNG, compared with only 12% for micronized LNG. LNG recovery decreased with increasing cure temperature and cure time for both the micronized and non-micronized LNG. For example, the recovery of micronized LNG falls from 35% to zero as the cure time at 100° C. is increased from 1.5 minutes to 30 minutes. Similarly, the recovery of non-micronized LNG falls from approximately 87% to 59% as the cure temperature is increased from 60° C. to 160° C. at a cure time of 7 minutes.
In an effort to define the maximum possible recovery of contraceptive using the best possible conditions for manufacture, further silicone slabs were prepared with non-micronized LNG. In this case, a low temperature manufacture at 60° C. with a cure time of 6 minutes was compared to a shorter higher temperature cure of 100° C. for 1.5 minutes. In addition, to define precisely the recovery of LNG expected from a ring compared to a slab, intravaginal rings were also prepared under the above conditions. […]

Data set [5] is described as follows: Recovery from NuSil MED-4870 platinum-catalyzed silicone slabs. It is filed as physicochemical. As to conditions: for % LNG Recoverable: MED-4870 slab. The method, then: as §2
Higher cure temperatures were required for the NuSil MED-4870 system to ensure sufficient curing to allow for slab removal from the molds. […]

The nature of data set [6]: Raman microscopy to assess drug binding to poly(methylhydrosiloxane). As to conditions: Raman microscopy (FIG. 12). The data set is classed as physicochemical. The text has this:
FIG. 12 depicts Raman microscopy studies to assess drug binding to poly(methylhydrosiloxane). LNG: levonorgestrel, DAP: dapivirine, PRG: progesterone, EE: Ethynyl estradiol.
To determine the binding site of compounds to the silicone polymer, Raman spectroscopy studies were undertaken. In the first study, scanning Raman microscopy was used as a method for mapping drug distribution in silicone elastomer films. Thin films were created using NuSil DDU-4320 silicone elastomer and either dapivirine, micronized levonorgestrel, or non-micronized levonorgestrel. 400 points were sampled. In the second study, Raman microscopy was used as a tool to assess binding to poly(methylhydrosiloxane).

The next data set can be described thus: Solubility in water. It is filed as physicochemical.
In a further data set the test system is wild-type HIV-1 strains. To be noted: cited from earlier work.
The test system of data set [7] is HIV-1 strains harboring different resistance-inducing mutations. As to conditions: cited from earlier work.

Values joined by “and” are separate entries in the source; they are usually repeats but may differ in a detail not shown here. Equal values may be shown once.

`C#C[C@]1(O)CC[C@H]2[C@@H]3CCC4=CC(=O)CC[C@@H]4[C@H]3C(=C)C[C@@]21CC` [ET, etonogestrel]: in data set [1], the “Time after which release ceased” value was found to be 8 days and the “Total release, % of initial drug loading” value was determined as 23%. For the same compound, the “Total release, MEDS-6382 compared with LSR9-9508-30” value in [2] is “greater from MEDS-6382 than LSR9-9508-30”.

For the compound `C#C[C@]1(O)CC[C@H]2[C@@H]3CCC4=CC(=O)CC[C@@H]4[C@H]3CC[C@@]21CC` [LNG, 13-ethyl-17-ethynyl-17-hydroxy-1,2,6,7,8,9,10,11,12,13,14,15,16,17-tetrad-ecahydrocyclopenta[a]phenanthren-3-one], in data set [1], the “Total release, % of initial drug loading” value is reported as 29%. The Release mechanism result in [1] is given as “diffusion-controlled”. Further, in data set [3] (non-micronized levonorgestrel), the “Release from platinum catalyzed silicone rings, non-micronized compared to micronized” value is “increased release”. For the same compound, the “Release of levonorgestrel detected initially (T0)” value in data set [3] (rings with micronized levonorgestrel) was “negligible release”. Besides, the “Release at week-two time point” value in [3] is on record as “lack of levonorgestrel release”. In addition, the “% LNG Recoverable” value in [4] (micronized, 60° C., 7 min) is 75%; in [4] (micronized, 80° C., 7 min), 50%; in data set [4] (micronized, 100° C., 1.5 min) it was 35% and 37%; in [4] (micronized, 100° C., 3 min), 25%; in [4] (micronized, 100° C., 7 min) it was 10% and 18%; in data set [4] (micronized, 100° C., 15 min), 2%. The “% LNG Recoverable” value in data set [4] (micronized, 100° C., 120 min) came out at 0%; in [4] (micronized, 120° C., 7 min) it was 0%; in data set [4] (micronized, 140° C., 7 min), 0%; in data set [4] (micronized, 160° C., 7 min), 0%; in [4] (non-micronized, 80° C., 7 min), 83%; in [4] (non-micronized, 100° C., 3 min) it was 82%. For the same compound, the “% LNG Recoverable” value in [4] (non-micronized, 100° C., 15 min) is 85%; in data set [4] (non-micronized, 100° C., 30 min) it was 80%; in data set [4] (non-micronized, 100° C., 120 min), 75%; in data set [4] (non-micronized, 120° C., 7 min), 83%; in data set [4] (non-micronized, 140° C., 7 min), 82% and 80%; in [4] (non-micronized, 160° C., 7 min) it was 58%. The “% LNG Recoverable” value is given as 59% in data set [4] (non-micronized, 160° C., 7 min, listed as levonorgestrel); 0% in [5] (micronized, 120° C., 10 min); 0% in [5] (micronized, 140° C., 10 min); 0% in data set [5] (micronized, 160° C., 1.5 min); 0% in data set [5] (micronized, 160° C., 7 min); 0% in [5] (micronized, 160° C., 10 min). Also, the “% LNG Recoverable” value is listed as 0% in [5] (micronized, 160° C., 15 min); 0% in data set [5] (micronized, 160° C., 20 min); 0% in data set [5] (micronized, 160° C., 30 min); 0% in [5] (micronized, 160° C., 120 min); 0% in data set [5] (micronized, 180° C., 10 min); 0% in data set [5] (micronized, 200° C., 10 min). Also, the “% LNG Recoverable” value in data set [5] (non-micronized, 120° C., 10 min) was 65%; in data set [5] (non-micronized, 140° C., 10 min) it was 55%; in data set [5] (non-micronized, 160° C., 1.5 min), 65%; in [5] (non-micronized, 160° C., 7 min), 47%; in data set [5] (non-micronized, 160° C., 10 min), 60%; in [5] (non-micronized, 160° C., 15 min) it was 33%. Moreover, the “% LNG Recoverable” value in data set [5] (non-micronized, 160° C., 20 min) is on record as 28%; in data set [5] (non-micronized, 160° C., 30 min), 10%; in data set [5] (non-micronized, 160° C., 120 min), 0%; in [5] (non-micronized, 180° C., 10 min), 8%; in [5] (non-micronized, 200° C., 10 min) it was 0%. Moreover, in data set [5] (NuSil MED-4870 slab heated at 160° C. for 5 minutes), the “Levonorgestrel content of slab” value was 47%. Further, in [6], the “Covalent binding to the silicone polymer” value was “covalently bind”.

Regarding `C#C[C@]1(O)CC[C@H]2[C@@H]3CCc4cc(O)ccc4[C@H]3CC[C@@]21C` [EE, Ethynyl Estradiol], in data set [1], the “Time after which release ceased” value is reported as 13 days and the “Total release, % of initial drug loading” value was 36%. For the same compound, the “Total release, MEDS-6382 compared with LSR9-9508-30” value in data set [2] is “greater from MEDS-6382 than LSR9-9508-30”. For the same compound, the “Covalent binding to the silicone polymer” value in data set [6] was “covalently bind”.

`Cc1cc(C)c(Nc2ccnc(Nc3ccc(C#N)cc3)n2)c(C)c1` [DAP, 4-[[4-[(2,4,6-trimethylphenyl)amino]-2-pyrimidinyl]amino]benzonitrile]: in data set [1], the “Total release, % of initial drug loading” value amounted to 41% and the Release mechanism entry is recorded as “diffusion-controlled”. In addition, in data set [3], the “Release at week-two time point” value was “reasonable dapivirine release”. In addition, in [6], the “Covalent binding to the silicone polymer” value is “do not covalently bind”. The “Solubility in water” value in the data set “Solubility in water” is “virtually insoluble in water”. In addition, the solubility in “Solubility in water” (water) is under 1 µg/mL. Moreover, in the data set with wild-type HIV-1 strains, the “Activity against wild-type HIV-1 strains” value was “potent activity”. The “Activity against HIV-1 strains harboring resistance-inducing mutations” value in data set [7] is “potent activity”.

`CC(=O)[C@H]1CC[C@H]2[C@@H]3CCC4=CC(=O)CC[C@]4(C)[C@H]3CC[C@]12C` [PRG, Progesterone]: in [6], the “Covalent binding to the silicone polymer” value is listed as “covalently bind”.
